The supplement of paper PMC10331698
± gives the standard deviation of the averaged measurements.

Assays:
Experiment in all cases: level (log10 ratio to DMSO vehicle control); higher = higher biomarker level / cell amount than vehicle control
[1] = compound: C=CC(=O)OCC(F)(F)C(F)(F)C(F)(F)C(F)(F)C(F)(F)C(F)(F)C(F)(F)F [1H,1H-Perfluorooctyl acrylate]; settings: in DMSO
Experimental: (§1)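 BioMAP Diversity Plus panel of 12 human primary cell co-culture systems (3C, 4H, LPS, SAg, BT, BF4T, BE3C, CASM3C, HDF3CGF, KF3CT, MyoF, Mphg). Compounds were added 1 h before stimulation and left for 24 h (MyoF 48 h; BT 72 h for soluble read-outs or 6 d for IgG). Biomarkers were read by ELISA, cytotoxicity by SRB, PBMC viability and proliferation by Alamar Blue. Each well value was divided by the mean of 8 DMSO control wells on the same plate and log10 transformed; duplicate blinded samples were tested at 4 concentrations.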

[2] = compound: O=C(O)C(F)(F)OC(F)(F)C(F)(F)OC(F)(F)F [Perfluoro-3,6-dioxaheptanoic acid]; settings: in DMSO
Experimental: as §1

[3] = compound: FC(F)(F)C(F)(F)C(F)(F)C(F)(F)C(F)(F)C(F)(F)C(F)(F)C(F)(F)CCS [2-(Perfluorooctyl)ethanthiol]; settings: in DMSO
Experimental: as §1

[4] = compound: OCCC(F)(F)C(F)(F)C(F)(F)C(F)(F)C(F)(F)C(F)(F)F [6:2 Fluorotelomer alcohol]; settings: in DMSO
Experimental: as §1

Perfluoropentanoic acid = compound: O=C(O)C(F)(F)C(F)(F)C(F)(F)C(F)(F)F [Perfluoropentanoic acid]; settings: in DMSO
Experimental: as §1

[5] = compound: OCC(F)(F)OC(F)(F)C(F)(F)OC(F)(F)CO [1H,1H,8H,8H-Perfluoro-3,6-dioxaoctane-1,8-diol]; settings: in DMSO
Experimental: as §1

[6] = compound: O=C(O)C(F)(F)C(F)(F)C(F)(F)C(F)(F)C(F)(F)C(F)(F)C(F)(F)C(F)F [9-H-Perfluorononanoic acid]; settings: in DMSO
Experimental: as §1

[7] = compound: OCCCC(F)(F)C(F)(F)C(F)(F)C(F)(F)C(F)(F)C(F)(F)C(F)(F)F [7:3 Fluorotelomer alcohol]; settings: 6700 nM; in DMSO
Experimental: as §1

| Test System | level (log10) ([1]; 6700 nM) | level (log10) ([1]; 20000 nM) | level (log10) ([1]; 60000 nM) | level (log10) ([2]; 6700 nM) | level (log10) ([2]; 20000 nM) | level (log10) ([2]; 60000 nM) | level (log10) ([3]; 6700 nM) | level (log10) ([3]; 20000 nM) | level (log10) ([4]; 6700 nM) | level (log10) ([4]; 20000 nM) | level (log10) (Perfluoropentanoic acid; 6700 nM) | level (log10) (Perfluoropentanoic acid; 20000 nM) | level (log10) (Perfluoropentanoic acid; 60000 nM) | level (log10) ([5]; 6700 nM) | level (log10) ([5]; 20000 nM) | level (log10) ([5]; 60000 nM) | level (log10) ([6]; 6700 nM) | level (log10) ([6]; 20000 nM) | level (log10) ([6]; 60000 nM) | level (log10) [7] |
| --- | --- | --- | --- | --- | --- | --- | --- | --- | --- | --- | --- | --- | --- | --- | --- | --- | --- | --- | --- | --- |
| CASM3C:CCL2/MCP-1 | -0.0035 ± 0.0078 | -0.0095 ± 0.0035 | -0.004 ± 0.0071 | -0.0445 ± 0.09 | -0.0325 ± 0.067 | -0.039 ± 0.095 | 0.008 ± 0.0014 | 0.0155 ± 0.0092 | -0.0205 ± 0.00071 | -0.019 ± 0.0028 | -0.0085 ± 0.005 | -0.0125 ± 0.019 | -0.0015 ± 0.015 | -0.026 ± 0.041 | -0.022 ± 0.017 | -0.017 ± 0.013 | 0.0125 ± 0.0092 | -0.0015 ± 0.00071 | 0.017 ± 0.0071 | -0.0115 ± 0.012 |
| 3C:CD54/ICAM-1 | 0.002 ± 0.0014 | 0 ± 0.0099 | 0 ± 0.018 | -0.0325 ± 0.0064 | -0.0165 ± 0.019 | 0.0035 ± 0.005 | -0.0055 ± 0.012 | 0.0005 ± 0.016 | -0.006 ± 0.013 | -0.0185 ± 0.044 | -0.0145 ± 0.03 | -0.028 ± 0.021 | -0.0075 ± 0.022 | -0.0015 ± 0.016 | -0.0005 ± 0.0064 | -0.0035 ± 0.011 | -0.006 | -0.0055 ± 0.0092 | 0.008 ± 0.013 | 0.013 |
| HDF3CGF:Proliferation 72hr | 0.0035 ± 0.0092 | -0.056 ± 0.078 | -0.168 ± 0.0092 | 0.0205 ± 0.05 | 0.055 ± 0.034 | 0.06 ± 0.0014 | -0.003 ± 0.0071 | -0.0115 ± 0.013 | -0.007 ± 0.05 | 0.0005 ± 0.086 | 0.002 ± 0.041 | 0.0505 ± 0.11 | 0.022 ± 0.03 | -0.001 ± 0.031 | 0.0325 ± 0.044 | -0.053 ± 0.031 | 0.062 ± 0.018 | 0.0905 ± 0.049 | -0.0045 ± 0.098 | -0.49 ± 0.0042 |
| HDF3CGF:EGFR | 0.0075 ± 0.012 | 0.0265 ± 0.019 | -0.051 ± 0.093 | 0.033 ± 0.0071 | 0.031 ± 0.047 | 0.048 ± 0.054 | -0.0295 ± 0.018 | -0.018 ± 0.04 | 0.0005 ± 0.012 | 0.006 ± 0.0099 | 0.008 ± 0.02 | -0.0265 ± 0.013 | -0.008 ± 0.027 | 0.0035 ± 0.013 | 0.0175 ± 0.025 | 0.0205 ± 0.054 | -0.011 ± 0.0028 | -0.024 ± 0.0057 | -0.034 ± 0.014 | -0.005 ± 0.12 |
| HDF3CGF:TIMP-1 | -0.026 ± 0.05 | -0.029 ± 0.0057 | -0.015 ± 0.038 | -0.0265 ± 0.029 | -0.012 ± 0.052 | -0.0655 ± 0.074 | -0.017 ± 0.013 | -0.035 ± 0.0042 | 0.0005 ± 0.018 | 0.0095 ± 0.028 | -0.0195 ± 0.0021 | -0.032 ± 0.014 | 0.0115 ± 0.011 | -0.007 ± 0.025 | -0.0015 ± 0.016 | 0.0065 ± 0.023 | -0.04 ± 0.0042 | 0.008 ± 0.0071 | 0.0385 ± 0.0021 | -0.012 |
| HDF3CGF:CCL2/MCP-1 | -0.0055 ± 0.018 | -0.0235 ± 0.021 | -0.046 ± 0.03 | 0.0155 ± 0.029 | 0.027 ± 0.023 | 0.0055 ± 0.049 | -0.0505 ± 0.03 | -0.077 ± 0.014 | 0.0015 ± 0.0035 | 0.0095 ± 0.019 | -0.03 ± 0.017 | -0.054 ± 0.013 | -0.022 ± 0.048 | 0.0015 ± 0.0092 | 0.0025 ± 0.012 | 0.026 ± 0.047 | -0.023 ± 0.028 | -0.0185 ± 0.044 | -0.0415 ± 0.052 | -0.0085 ± 0.0092 |
| CASM3C:CD141/Thrombomodulin | -0.002 ± 0.0028 | 0.0035 ± 0.011 | 0.002 ± 0.017 | 0.032 ± 0.0085 | 0.019 ± 0.03 | 0.0295 ± 0.013 | -0.034 ± 0.048 | -0.0065 ± 0.09 | 0.0235 ± 0.0092 | 0.005 ± 0.023 | -0.0065 ± 0.016 | -0.0135 ± 0.035 | 0.0105 ± 0.005 | -0.0045 ± 0.0021 | 0.0035 ± 0.005 | 0.001 ± 0.016 | -0.003 ± 0.0099 | -0.0075 ± 0.0035 | 0.0075 ± 0.0021 | 0 ± 0.0014 |
| CASM3C:CXCL8/IL-8 | 0.004 ± 0.0099 | -0.006 ± 0.011 | 0.016 ± 0.0028 | 0.011 ± 0.037 | 0.018 ± 0.052 | 0.0295 ± 0.039 | 0.021 ± 0.047 | 0.034 ± 0.037 | 0.019 ± 0.0014 | 0.0195 ± 0.015 | -0.01 ± 0.0085 | -0.019 ± 0.011 | -0.0015 ± 0.013 | 0.0045 ± 0.0064 | -0.002 ± 0.0028 | 0.0125 ± 0.013 | -0.002 ± 0.0057 | -0.0045 ± 0.00071 | 0.0035 ± 0.0035 | -0.0145 ± 0.005 |
| CASM3C:IL-6 | -0.0135 ± 0.029 | -0.027 ± 0.048 | -0.0125 ± 0.03 | -0.01 ± 0.044 | -0.0255 ± 0.0035 | -0.017 ± 0.02 | 0.0235 ± 0.09 | 0.0465 ± 0.035 | 0.0015 ± 0.018 | -0.004 ± 0.0099 | -0.02 ± 0.028 | -0.028 ± 0.027 | 0.014 ± 0.047 | -0.017 ± 0.011 | -0.009 ± 0.0014 | 0.0215 ± 0.056 | -0.012 ± 0.0071 | -0.036 ± 0.0042 | -0.0045 ± 0.05 | 0.0015 ± 0.012 |
| 3C:CD141/Thrombomodulin | -0.027 ± 0.017 | -0.023 ± 0.018 | -0.0455 ± 0.021 | -0.037 ± 0.04 | -0.0105 ± 0.044 | -0.0255 ± 0.077 | 0.0105 ± 0.0078 | -0.042 ± 0.05 | -0.019 ± 0.037 | -0.0445 ± 0.021 | 0.024 ± 0.021 | 0.0345 ± 0.005 | 0.0685 ± 0.042 | -0.003 ± 0.013 | -0.0075 ± 0.015 | 0.01 ± 0.0085 | 0.012 ± 0.0085 | -0.003 ± 0.0085 | -0.0365 ± 0.0078 | -0.032 |
| BE3C:MMP-1 | -0.018 ± 0.016 | -0.0215 ± 0.0035 | 0.006 ± 0.0014 | -0.042 ± 0.048 | -0.0015 ± 0.057 | 0.0145 ± 0.037 | -0.0055 ± 0.022 | -0.032 ± 0.031 | -0.0245 ± 0.036 | -0.0195 ± 0.028 | -0.015 ± 0.03 | -0.0175 ± 0.029 | 0.027 ± 0.047 | 0.0105 ± 0.011 | -0.013 ± 0.021 | 0.009 ± 0.052 | 0.043 ± 0.045 | 0.061 ± 0.0028 | 0.204 ± 0.047 | 0.016 ± 0.033 |
| MyoF:bFGF | 0.003 | -0.0055 ± 0.0021 | 0.012 ± 0.024 | -0.021 ± 0.023 | 0.0045 ± 0.023 | -0.0095 ± 0.021 | -0.0075 ± 0.019 | -0.017 ± 0.0014 | 0.0015 ± 0.005 | -0.0085 ± 0.0035 | -0.021 ± 0.0014 | -0.0085 ± 0.0078 | -0.0055 ± 0.0035 | -0.001 ± 0.016 | 0.0075 ± 0.011 | 0.004 ± 0.0057 | -0.0025 ± 0.021 | 0.0015 ± 0.012 | -0.0055 ± 0.018 | -0.006 ± 0.0028 |
| BE3C:tPA | 0.005 ± 0.0028 | 0.0125 ± 0.00071 | 0.0605 ± 0.022 | -0.025 ± 0.0099 | -0.0485 ± 0.0021 | -0.03 ± 0.033 | 0.0105 ± 0.0064 | 0.0165 ± 0.016 | -0.0135 ± 0.018 | -0.004 ± 0.0057 | -0.059 ± 0.011 | -0.043 ± 0.017 | -0.013 ± 0.064 | -0.014 ± 0.021 | -0.0255 ± 0.03 | -0.0225 ± 0.00071 | 0.075 ± 0.023 | 0.0285 ± 0.019 | 0.002 ± 0.025 | -0.014 ± 0.025 |
| MyoF:SRB | -0.003 ± 0.011 | -0.012 ± 0.018 | -0.0335 ± 0.005 | -0.0055 ± 0.0035 | -0.0015 ± 0.00071 | 0.004 ± 0.0085 | -0.0005 ± 0.0092 | 0.0025 ± 0.0021 | -0.002 ± 0.0085 | 0 ± 0.0028 | 0.003 ± 0.0028 | -0.009 ± 0.0014 | -0.004 ± 0.0057 | -0.0045 ± 0.00071 | -0.001 ± 0.0014 | -0.017 ± 0.013 | 0.015 ± 0.0042 | 0.003 | -0.0105 ± 0.0064 | 0.006 ± 0.0071 |
